Data from paper PMC8632988, “Inhibition of SYK and cSrc kinases can protect bone and cartilage in preclinical models of osteoarthritis and rheumatoid arthritis” (Scientific Reports, 2021).

Legend:
Test in all cases: Kinase selectivity profile assay
Assay type in all cases: biochemical
CDK7/cyclin H = target: T1, CDK7/cyclin H (Homo sapiens, UniProt P50613); conditions: 500 nM; relative to DMSO; read-out: Residual enzymatic activity
T1 construct: purchased Reaction Biology Corporation
How it was run: (§1)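 Radiometric kinase assay run by a standard protocol. Unbound phosphate was removed by washing filters in phosphoric acid, and product radioactivity gave percent remaining kinase activity versus DMSO vehicle reactions. Run in duplicate.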

PKCd = target: T2, PKCd (Homo sapiens, UniProt Q05655); conditions: 500 nM; relative to DMSO; read-out: Residual enzymatic activity
T2 construct: purchased Reaction Biology Corporation
How it was run: as §1

ERBB2/HER2 = target: T3, ERBB2/HER2 (Homo sapiens, UniProt P04626); conditions: 500 nM; relative to DMSO; read-out: Residual enzymatic activity
T3 construct: purchased Reaction Biology Corporation
How it was run: as §1

DAPK1 = target: T4, DAPK1 (Homo sapiens, UniProt P53355); conditions: 500 nM; relative to DMSO; read-out: Residual enzymatic activity
T4 construct: purchased Reaction Biology Corporation
How it was run: as §1

ARAF = target: T5, ARAF (Homo sapiens, UniProt P10398); conditions: 500 nM; relative to DMSO; read-out: Residual enzymatic activity
T5 construct: purchased Reaction Biology Corporation
How it was run: as §1

LATS1 = target: T6, LATS1 (Homo sapiens, UniProt O95835); conditions: 500 nM; relative to DMSO; read-out: Residual enzymatic activity
T6 construct: purchased Reaction Biology Corporation
How it was run: as §1

FLT1/VEGFR1 = target: T7, FLT1/VEGFR1 (Homo sapiens, UniProt P17948); conditions: 500 nM, relative to DMSO
T7 construct: purchased Reaction Biology Corporation
T7 sequence (P17948 27-1338): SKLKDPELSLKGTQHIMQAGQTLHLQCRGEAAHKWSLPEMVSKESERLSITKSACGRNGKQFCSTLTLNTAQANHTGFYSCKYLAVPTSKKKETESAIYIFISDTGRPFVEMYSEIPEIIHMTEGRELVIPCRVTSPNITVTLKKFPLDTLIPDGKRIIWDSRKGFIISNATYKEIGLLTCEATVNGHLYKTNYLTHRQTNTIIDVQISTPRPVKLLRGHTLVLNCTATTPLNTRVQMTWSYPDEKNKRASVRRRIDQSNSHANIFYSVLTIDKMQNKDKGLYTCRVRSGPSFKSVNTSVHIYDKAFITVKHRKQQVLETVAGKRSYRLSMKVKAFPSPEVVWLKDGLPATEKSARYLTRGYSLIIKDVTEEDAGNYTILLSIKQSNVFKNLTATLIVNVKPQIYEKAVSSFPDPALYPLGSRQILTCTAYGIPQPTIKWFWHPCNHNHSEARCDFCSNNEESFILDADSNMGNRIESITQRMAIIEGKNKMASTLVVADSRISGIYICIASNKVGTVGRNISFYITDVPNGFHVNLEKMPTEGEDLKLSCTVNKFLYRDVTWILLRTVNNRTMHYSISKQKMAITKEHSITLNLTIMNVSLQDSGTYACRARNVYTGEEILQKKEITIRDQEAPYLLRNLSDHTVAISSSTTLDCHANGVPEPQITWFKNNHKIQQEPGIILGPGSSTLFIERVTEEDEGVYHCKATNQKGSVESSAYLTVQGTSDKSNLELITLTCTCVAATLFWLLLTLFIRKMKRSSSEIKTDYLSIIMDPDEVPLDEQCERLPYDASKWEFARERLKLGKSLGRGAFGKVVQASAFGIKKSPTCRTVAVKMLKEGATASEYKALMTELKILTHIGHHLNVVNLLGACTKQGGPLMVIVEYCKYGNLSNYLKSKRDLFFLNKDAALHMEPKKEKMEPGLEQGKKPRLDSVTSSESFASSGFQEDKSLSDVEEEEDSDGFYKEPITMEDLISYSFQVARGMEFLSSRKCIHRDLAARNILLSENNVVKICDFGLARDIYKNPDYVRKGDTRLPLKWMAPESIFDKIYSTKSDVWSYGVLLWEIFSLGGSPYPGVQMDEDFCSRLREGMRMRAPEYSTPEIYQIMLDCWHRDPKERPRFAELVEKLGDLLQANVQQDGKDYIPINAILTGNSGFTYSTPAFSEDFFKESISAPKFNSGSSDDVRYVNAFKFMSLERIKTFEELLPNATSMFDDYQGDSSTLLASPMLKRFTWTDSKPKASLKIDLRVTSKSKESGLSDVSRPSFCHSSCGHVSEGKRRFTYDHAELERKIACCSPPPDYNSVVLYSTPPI
How it was run: as §1

MLCK2/MYLK2 = target: T8, MLCK2/MYLK2 (Homo sapiens, UniProt Q9H1R3); conditions: 500 nM; relative to DMSO; read-out: Residual enzymatic activity
T8 construct: purchased Reaction Biology Corporation
How it was run: as §1

CLK2 = target: T9, CLK2 (Homo sapiens, UniProt P49760); conditions: 500 nM; relative to DMSO; read-out: Residual enzymatic activity
T9 construct: purchased Reaction Biology Corporation
How it was run: as §1

GCK/MAP4K2 = target: T10, GCK/MAP4K2 (Homo sapiens, UniProt Q12851); conditions: 500 nM; relative to DMSO; read-out: Residual enzymatic activity
T10 construct: purchased Reaction Biology Corporation
How it was run: as §1

RSK4 = target: T11, RSK4 (Homo sapiens, UniProt Q9UK32); conditions: 500 nM; relative to DMSO; read-out: Residual enzymatic activity
T11 construct: purchased Reaction Biology Corporation
How it was run: as §1

HGK/MAP4K4 = target: T12, HGK/MAP4K4 (Homo sapiens, UniProt O95819); conditions: 500 nM; relative to DMSO; read-out: Residual enzymatic activity
T12 construct: purchased Reaction Biology Corporation
How it was run: as §1

CLK4 = target: T13, CLK4 (Homo sapiens, UniProt Q9HAZ1); conditions: 500 nM; relative to DMSO; read-out: Residual enzymatic activity
T13 construct: purchased Reaction Biology Corporation
How it was run: as §1

p70S6K/RPS6KB1 = target: T14, p70S6K/RPS6KB1 (Homo sapiens, UniProt P23443); conditions: 500 nM; relative to DMSO; read-out: Residual enzymatic activity
T14 construct: purchased Reaction Biology Corporation
How it was run: as §1

GRK2 = target: T15, GRK2 (Homo sapiens, UniProt P25098); conditions: 500 nM; relative to DMSO; read-out: Residual enzymatic activity
T15 construct: purchased Reaction Biology Corporation
How it was run: as §1

CAMKK1 = target: T16, CAMKK1 (Homo sapiens, UniProt Q8N5S9); conditions: 500 nM; relative to DMSO; read-out: Residual enzymatic activity
T16 construct: purchased Reaction Biology Corporation
How it was run: as §1

NEK9 = target: T17, NEK9 (Homo sapiens, UniProt Q8TD19); conditions: 500 nM; relative to DMSO; read-out: Residual enzymatic activity
T17 construct: purchased Reaction Biology Corporation
How it was run: as §1

DMPK = target: T18, DMPK (Homo sapiens, UniProt Q09013); conditions: 500 nM; relative to DMSO; read-out: Residual enzymatic activity
T18 construct: purchased Reaction Biology Corporation
How it was run: as §1

P38b/MAPK11 = target: T19, P38b/MAPK11 (Homo sapiens, UniProt Q15759); conditions: 500 nM; relative to DMSO; read-out: Residual enzymatic activity
T19 construct: purchased Reaction Biology Corporation
T19 sequence (Q15759 whole entry): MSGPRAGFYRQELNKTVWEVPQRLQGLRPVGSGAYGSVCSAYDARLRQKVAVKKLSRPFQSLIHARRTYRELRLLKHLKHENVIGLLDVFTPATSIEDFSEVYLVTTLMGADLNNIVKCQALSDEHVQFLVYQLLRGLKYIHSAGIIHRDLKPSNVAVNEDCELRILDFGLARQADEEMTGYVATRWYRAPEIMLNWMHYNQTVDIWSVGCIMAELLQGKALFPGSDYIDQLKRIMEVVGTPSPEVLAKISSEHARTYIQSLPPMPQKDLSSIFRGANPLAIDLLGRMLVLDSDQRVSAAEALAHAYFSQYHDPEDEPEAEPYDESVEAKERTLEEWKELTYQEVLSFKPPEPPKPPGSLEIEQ
How it was run: as §1

CK2a = target: T20, CK2a (Homo sapiens, UniProt P68400); conditions: 500 nM; relative to DMSO; read-out: Residual enzymatic activity
T20 construct: purchased Reaction Biology Corporation
How it was run: as §1

GRK4 = target: T21, GRK4 (Homo sapiens, UniProt P32298); conditions: 500 nM; relative to DMSO; read-out: Residual enzymatic activity
T21 construct: purchased Reaction Biology Corporation
T21 sequence (P32298 whole entry): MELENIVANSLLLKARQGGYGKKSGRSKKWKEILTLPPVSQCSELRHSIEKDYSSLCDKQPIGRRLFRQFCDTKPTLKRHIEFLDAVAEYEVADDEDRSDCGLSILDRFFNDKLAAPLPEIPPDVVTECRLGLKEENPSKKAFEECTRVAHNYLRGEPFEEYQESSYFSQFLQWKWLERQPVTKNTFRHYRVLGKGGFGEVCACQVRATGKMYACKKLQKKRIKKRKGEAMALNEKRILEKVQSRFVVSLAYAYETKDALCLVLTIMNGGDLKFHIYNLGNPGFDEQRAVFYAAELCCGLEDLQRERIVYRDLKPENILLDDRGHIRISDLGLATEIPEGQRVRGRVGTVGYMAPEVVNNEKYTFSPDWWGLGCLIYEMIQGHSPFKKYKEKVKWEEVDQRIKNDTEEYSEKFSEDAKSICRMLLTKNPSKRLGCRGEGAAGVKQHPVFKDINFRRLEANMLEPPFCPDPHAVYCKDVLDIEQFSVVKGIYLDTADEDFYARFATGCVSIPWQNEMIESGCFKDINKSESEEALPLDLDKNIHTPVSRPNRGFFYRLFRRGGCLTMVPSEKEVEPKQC
How it was run: as §1

RIPK3 = target: T22, RIPK3 (Homo sapiens, UniProt Q9Y572); conditions: 500 nM; relative to DMSO; read-out: Residual enzymatic activity
T22 construct: purchased Reaction Biology Corporation
T22 sequence (Q9Y572 whole entry): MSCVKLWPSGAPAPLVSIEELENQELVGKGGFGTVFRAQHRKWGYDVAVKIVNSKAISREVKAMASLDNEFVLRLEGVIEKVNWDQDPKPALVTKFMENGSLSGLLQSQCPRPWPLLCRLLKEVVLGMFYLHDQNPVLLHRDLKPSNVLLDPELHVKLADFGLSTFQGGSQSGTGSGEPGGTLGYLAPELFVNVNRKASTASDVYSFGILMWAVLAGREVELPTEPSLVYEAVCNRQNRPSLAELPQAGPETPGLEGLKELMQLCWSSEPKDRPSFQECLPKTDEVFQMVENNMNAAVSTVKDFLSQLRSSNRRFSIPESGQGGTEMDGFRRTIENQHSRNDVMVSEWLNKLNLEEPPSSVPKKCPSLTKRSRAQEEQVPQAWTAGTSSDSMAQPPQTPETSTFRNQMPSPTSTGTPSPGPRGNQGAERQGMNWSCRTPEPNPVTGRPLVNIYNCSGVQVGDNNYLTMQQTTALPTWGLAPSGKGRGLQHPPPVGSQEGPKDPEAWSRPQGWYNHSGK
How it was run: as §1

TEC = target: T23, TEC (Homo sapiens, UniProt P42680); conditions: 500 nM; relative to DMSO; read-out: Residual enzymatic activity
T23 construct: purchased Reaction Biology Corporation
How it was run: as §1

SGK2 = target: T24, SGK2 (Homo sapiens, UniProt Q9HBY8); conditions: 500 nM; relative to DMSO; read-out: Residual enzymatic activity
T24 construct: purchased Reaction Biology Corporation
How it was run: as §1

MEK2 = target: T25, MEK2 (Homo sapiens, UniProt P36507); conditions: 500 nM; relative to DMSO; read-out: Residual enzymatic activity
T25 construct: purchased Reaction Biology Corporation
How it was run: as §1

PDK1/PDPK1 = target: T26, PDK1/PDPK1 (Homo sapiens, UniProt O15530); conditions: 500 nM; relative to DMSO; read-out: Residual enzymatic activity
T26 construct: purchased Reaction Biology Corporation
How it was run: as §1

HIPK3 = target: T27, HIPK3 (Homo sapiens, UniProt Q9H422); conditions: 500 nM; relative to DMSO; read-out: Residual enzymatic activity
T27 construct: purchased Reaction Biology Corporation
How it was run: as §1

EPHA5 = target: T28, EPHA5 (Homo sapiens, UniProt P54756); conditions: 500 nM; relative to DMSO
T28 construct: purchased Reaction Biology Corporation
How it was run: as §1

TESK1 = target: T29, TESK1 (Homo sapiens, UniProt Q15569); conditions: 500 nM; relative to DMSO; read-out: Residual enzymatic activity
T29 construct: purchased Reaction Biology Corporation
How it was run: as §1

PIM2 = target: T30, PIM2 (Homo sapiens, UniProt Q9P1W9); conditions: 500 nM; relative to DMSO; read-out: Residual enzymatic activity
T30 construct: purchased Reaction Biology Corporation
T30 sequence (Q9P1W9 whole entry): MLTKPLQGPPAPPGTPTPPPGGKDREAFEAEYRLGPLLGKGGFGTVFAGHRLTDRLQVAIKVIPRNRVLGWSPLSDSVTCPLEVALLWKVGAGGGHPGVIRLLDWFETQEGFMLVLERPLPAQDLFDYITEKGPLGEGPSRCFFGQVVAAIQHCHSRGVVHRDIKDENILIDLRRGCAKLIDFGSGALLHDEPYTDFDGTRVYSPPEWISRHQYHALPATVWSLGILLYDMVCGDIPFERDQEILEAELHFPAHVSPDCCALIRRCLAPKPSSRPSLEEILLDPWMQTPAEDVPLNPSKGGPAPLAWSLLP
How it was run: as §1

ERBB4/HER4 = target: T31, ERBB4/HER4 (Homo sapiens, UniProt Q15303); conditions: 500 nM; relative to DMSO; read-out: Residual enzymatic activity
T31 construct: purchased Reaction Biology Corporation
How it was run: as §1

ERK7/MAPK15 = target: T32, ERK7/MAPK15 (Homo sapiens, UniProt Q8TD08); conditions: 500 nM; relative to DMSO; read-out: Residual enzymatic activity
T32 construct: purchased Reaction Biology Corporation
How it was run: as §1

EPHB3 = target: T33, EPHB3 (Homo sapiens, UniProt P54753); conditions: 500 nM; relative to DMSO
T33 construct: purchased Reaction Biology Corporation
T33 sequence (P54753 34-998): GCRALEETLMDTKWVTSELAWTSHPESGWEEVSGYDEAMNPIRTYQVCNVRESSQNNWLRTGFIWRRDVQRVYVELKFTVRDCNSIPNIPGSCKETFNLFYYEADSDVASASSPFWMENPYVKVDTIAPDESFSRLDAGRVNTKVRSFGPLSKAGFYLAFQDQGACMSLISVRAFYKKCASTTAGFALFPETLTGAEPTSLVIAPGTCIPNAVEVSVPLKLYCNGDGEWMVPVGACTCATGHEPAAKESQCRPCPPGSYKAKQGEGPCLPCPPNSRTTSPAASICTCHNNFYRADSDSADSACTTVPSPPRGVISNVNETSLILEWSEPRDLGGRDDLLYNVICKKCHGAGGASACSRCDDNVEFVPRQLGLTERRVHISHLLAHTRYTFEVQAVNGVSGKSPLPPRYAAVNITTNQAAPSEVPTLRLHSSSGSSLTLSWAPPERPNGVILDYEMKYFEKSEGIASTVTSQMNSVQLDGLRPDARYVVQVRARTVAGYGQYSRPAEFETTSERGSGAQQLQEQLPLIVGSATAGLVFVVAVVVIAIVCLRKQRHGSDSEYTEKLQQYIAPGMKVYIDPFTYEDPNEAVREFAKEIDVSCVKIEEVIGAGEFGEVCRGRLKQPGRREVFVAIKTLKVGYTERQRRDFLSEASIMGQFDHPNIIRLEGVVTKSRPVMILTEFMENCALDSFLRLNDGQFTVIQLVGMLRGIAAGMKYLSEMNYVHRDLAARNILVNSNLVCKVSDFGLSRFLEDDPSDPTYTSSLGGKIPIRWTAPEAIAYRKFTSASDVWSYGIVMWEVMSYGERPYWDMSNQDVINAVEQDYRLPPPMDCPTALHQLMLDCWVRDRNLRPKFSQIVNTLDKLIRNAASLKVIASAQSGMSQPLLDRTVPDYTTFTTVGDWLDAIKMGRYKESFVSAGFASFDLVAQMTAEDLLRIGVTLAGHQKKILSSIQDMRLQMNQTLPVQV
How it was run: as §1

BTK = target: T34, BTK (Homo sapiens, UniProt Q06187); conditions: 500 nM; relative to DMSO; read-out: Residual enzymatic activity
T34 construct: purchased Reaction Biology Corporation
How it was run: as §1

TYK2 = target: T35, TYK2 (Homo sapiens, UniProt P29597); conditions: 500 nM; relative to DMSO; read-out: Residual enzymatic activity
T35 construct: purchased Reaction Biology Corporation
How it was run: as §1

EPHA8 = target: T36, EPHA8 (Homo sapiens, UniProt P29322); conditions: 500 nM; relative to DMSO
T36 construct: purchased Reaction Biology Corporation
How it was run: as §1

CDK1/cyclin E = target: T37, CDK1/cyclin E (Homo sapiens, UniProt P06493); conditions: 500 nM; relative to DMSO; read-out: Residual enzymatic activity
T37 construct: purchased Reaction Biology Corporation
How it was run: as §1

MARK4 = target: T38, MARK4 (Homo sapiens, UniProt Q96L34); conditions: 500 nM; relative to DMSO; read-out: Residual enzymatic activity
T38 construct: purchased Reaction Biology Corporation
How it was run: as §1

TRKB = target: T39, TRKB (Homo sapiens, UniProt Q16620); conditions: 500 nM; relative to DMSO; read-out: Residual enzymatic activity
T39 construct: purchased Reaction Biology Corporation
T39 sequence (Q16620 32-822): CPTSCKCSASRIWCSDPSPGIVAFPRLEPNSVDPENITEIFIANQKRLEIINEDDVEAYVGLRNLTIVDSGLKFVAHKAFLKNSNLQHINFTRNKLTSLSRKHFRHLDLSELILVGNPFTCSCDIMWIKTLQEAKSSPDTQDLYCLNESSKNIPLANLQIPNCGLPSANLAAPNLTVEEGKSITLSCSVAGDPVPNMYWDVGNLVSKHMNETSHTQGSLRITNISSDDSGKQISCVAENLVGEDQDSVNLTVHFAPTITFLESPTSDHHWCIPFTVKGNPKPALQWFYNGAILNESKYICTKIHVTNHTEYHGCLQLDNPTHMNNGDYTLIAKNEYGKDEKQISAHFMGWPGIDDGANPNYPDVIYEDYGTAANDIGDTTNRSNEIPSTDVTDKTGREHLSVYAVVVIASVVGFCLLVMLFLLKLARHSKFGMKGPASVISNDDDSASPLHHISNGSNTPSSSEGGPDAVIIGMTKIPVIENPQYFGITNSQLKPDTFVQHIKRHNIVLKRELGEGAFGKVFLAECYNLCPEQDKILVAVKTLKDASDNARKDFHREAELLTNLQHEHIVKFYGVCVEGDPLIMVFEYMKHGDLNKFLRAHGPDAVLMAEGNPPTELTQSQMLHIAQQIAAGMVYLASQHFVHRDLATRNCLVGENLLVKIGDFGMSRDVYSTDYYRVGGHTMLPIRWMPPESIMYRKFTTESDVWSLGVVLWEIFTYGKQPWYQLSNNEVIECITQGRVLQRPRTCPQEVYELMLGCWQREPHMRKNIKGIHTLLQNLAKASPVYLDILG
How it was run: as §1

ALK4/ACVR1B = target: T40, ALK4/ACVR1B (Homo sapiens, UniProt P36896); conditions: 500 nM; relative to DMSO; read-out: Residual enzymatic activity
T40 construct: purchased Reaction Biology Corporation
How it was run: as §1

## COc1cc(Nc2ncnc(Nc3cc4c(cn3)NC(=O)C(C)(C)O4)n2)cc(OC)c1OC [MT-SYK-03]
CDK7/cyclin H
  remaining activity at 0.5 µM: 99.6%
PKCd
  remaining activity at 0.5 µM: 110%
ERBB2/HER2
  remaining activity at 0.5 µM: 82.2%
DAPK1
  remaining activity at 0.5 µM: 113%
ARAF
  remaining activity at 0.5 µM: 59.7%
LATS1
  remaining activity at 0.5 µM: 99.4%
FLT1/VEGFR1
  Residual enzymatic activity: did not inhibit
FLT1/VEGFR1; read-out: Residual enzymatic activity
  remaining activity at 0.5 µM: 65.4%
MLCK2/MYLK2
  remaining activity at 0.5 µM: 105%
CLK2
  remaining activity at 0.5 µM: 94.5%
GCK/MAP4K2
  remaining activity at 0.5 µM: 100%
RSK4
  remaining activity at 0.5 µM: 99.7%
HGK/MAP4K4
  remaining activity at 0.5 µM: 78.4%
CLK4
  remaining activity at 0.5 µM: 88.7%
p70S6K/RPS6KB1
  remaining activity at 0.5 µM: 98.3%
GRK2
  remaining activity at 0.5 µM: 101%
CAMKK1
  remaining activity at 0.5 µM: 102%
NEK9
  remaining activity at 0.5 µM: 55.7%
DMPK
  remaining activity at 0.5 µM: 94.3%
P38b/MAPK11
  remaining activity at 0.5 µM: 103%
CK2a
  remaining activity at 0.5 µM: 94.3%
GRK4
  remaining activity at 0.5 µM: 99.7%
RIPK3
  remaining activity at 0.5 µM: 108%
TEC
  remaining activity at 0.5 µM: 71%
SGK2
  remaining activity at 0.5 µM: 110%
MEK2
  remaining activity at 0.5 µM: 97.2%
PDK1/PDPK1
  remaining activity at 0.5 µM: 85.5%
HIPK3
  remaining activity at 0.5 µM: 110%
EPHA5
  Residual enzymatic activity: 76.4%
TESK1
  remaining activity at 0.5 µM: 94.5%
PIM2
  remaining activity at 0.5 µM: 97.2%
ERBB4/HER4
  remaining activity at 0.5 µM: 79.4%
ERK7/MAPK15
  remaining activity at 0.5 µM: 100%
EPHB3
  Residual enzymatic activity: 94.2%
BTK
  remaining activity at 0.5 µM: 51.3%
TYK2
  remaining activity at 0.5 µM: 71.2%
EPHA8
  Residual enzymatic activity: 99.7%
CDK1/cyclin E
  remaining activity at 0.5 µM: 94.6%
MARK4
  remaining activity at 0.5 µM: 92.1%
TRKB
  remaining activity at 0.5 µM: 92.4%
ALK4/ACVR1B
  remaining activity at 0.5 µM: 125%
